In patent US10696651B2, “Heterocyclic compound” (Takeda Pharmaceutical Company Limited, priority 2016, dated 2020):
Where a name gives a salt, the structure may show the parent alone. Read-outs that look alike come from different tables or passages of the source.

What was measured:
[1] = molecular target: T1, human GCN2 full-length protein (Homo sapiens, UniProt Q9P2K8); test: GCN2 enzyme inhibition assay (LanthaScreen TR-FRET); format: biochemical; details: GCN2 enzyme inhibitory activity at compound concentration of 3 μM; for inhibition at 3 µM: read-out: inhibitory rate; for inhibitory rate: 3 µM
T1 construct: purchased Carna Biosciences, Inc
Protocol: GCN2 enzyme was preserved at -70° C. and used. The GCN2 enzyme inhibitory activity of the test compound was measured by the LanthaScreenTR-FRET (Time Resolved Fluorescence Resonance Energy Transfer) method (manufactured by ThermoFisher). […] Then, GCN2 enzyme solution diluted with the assay buffer was added by 2 μL to each well. The enzyme solution was not added to a part of the wells to give a control group. After incubation at room temperature for 1 hr, 570 μM ATP solution containing 390 nM […] physiological protein substrate (ThermoFisher) was added by 2 μL. After reaction at room temperature for 1 hr, TR-FRET Dilution Buffer (ThermoFisher) containing 4 nM Terbium-labeled anti-elF2alpha [[…]] antibody (ThermoFisher) dissolved therein was added by 2 μL to each well. After standing at room temperature for 1 hr, time decomposition fluorescence measurement was performed on platereader Envision (manufactured by PerkinElmer).

[2] = tested on: osteosarcoma cell line U-2-OS; test: In vitro cell proliferation inhibition assay (CellTiter-Glo, low amino acid media); format: cell-based; details: McCoy's 5A low amino acid media; for inhibition at 0.1 µM: Homo sapiens, U2OS, 72 h, cell proliferation inhibitory rate; for inhibitory rate: 72 hr
Protocol: A cell suspension (40 μL) (1000 cells/well) of osteosarcoma cell line U-2-OS obtained from ATCC (American Type Culture Collection) was seeded on a 384 plate using McCoy's 5A low amino acid media (amino acid content 25%). The seeded cells were incubated (37° C., 5% CO2) overnight to 24 hr at the longest. Each example compound was dissolved (10 mM) in DMSO, delivered to wells by using TECAN HP D300 (TECAN), and the plate was incubated for 72 hr (37° C., 5% CO2). A well without addition of compound was treated similarly as a control group. Celltiter-Glo (registered trade mark) Luminescent Cell Viability Assay reagent (Promega KK) equilibrated at room temperature was added (40 μL/well) to cells in each well before compound treatment (untreated group) and 72 hours after compound treatment. After incubation for 10 min, cell proliferation inhibitory rate was measured by the amount of ATP which is a cell viability marker. Luminescence of cells showing ATP amount was measured using ARVO MX (PerkinElmer). Based on the luminescence values of the untreatment group, the control group without addition of Example compound solution, and the treatment group with addition of Example compound, the cell proliferation inhibitory rate (%) of the test compound at a compound concentration of 100 nM was calculated by the following formula and the results thereof are shown in Tables 4-1, 4-2. Inhibitory rate (%)=(1−(luminescence value of treatment group−luminescence value of untreatment group)÷(luminescence value of control group−luminescence value of untreatment group))×100

T1 sequence (Q9P2K8 whole entry): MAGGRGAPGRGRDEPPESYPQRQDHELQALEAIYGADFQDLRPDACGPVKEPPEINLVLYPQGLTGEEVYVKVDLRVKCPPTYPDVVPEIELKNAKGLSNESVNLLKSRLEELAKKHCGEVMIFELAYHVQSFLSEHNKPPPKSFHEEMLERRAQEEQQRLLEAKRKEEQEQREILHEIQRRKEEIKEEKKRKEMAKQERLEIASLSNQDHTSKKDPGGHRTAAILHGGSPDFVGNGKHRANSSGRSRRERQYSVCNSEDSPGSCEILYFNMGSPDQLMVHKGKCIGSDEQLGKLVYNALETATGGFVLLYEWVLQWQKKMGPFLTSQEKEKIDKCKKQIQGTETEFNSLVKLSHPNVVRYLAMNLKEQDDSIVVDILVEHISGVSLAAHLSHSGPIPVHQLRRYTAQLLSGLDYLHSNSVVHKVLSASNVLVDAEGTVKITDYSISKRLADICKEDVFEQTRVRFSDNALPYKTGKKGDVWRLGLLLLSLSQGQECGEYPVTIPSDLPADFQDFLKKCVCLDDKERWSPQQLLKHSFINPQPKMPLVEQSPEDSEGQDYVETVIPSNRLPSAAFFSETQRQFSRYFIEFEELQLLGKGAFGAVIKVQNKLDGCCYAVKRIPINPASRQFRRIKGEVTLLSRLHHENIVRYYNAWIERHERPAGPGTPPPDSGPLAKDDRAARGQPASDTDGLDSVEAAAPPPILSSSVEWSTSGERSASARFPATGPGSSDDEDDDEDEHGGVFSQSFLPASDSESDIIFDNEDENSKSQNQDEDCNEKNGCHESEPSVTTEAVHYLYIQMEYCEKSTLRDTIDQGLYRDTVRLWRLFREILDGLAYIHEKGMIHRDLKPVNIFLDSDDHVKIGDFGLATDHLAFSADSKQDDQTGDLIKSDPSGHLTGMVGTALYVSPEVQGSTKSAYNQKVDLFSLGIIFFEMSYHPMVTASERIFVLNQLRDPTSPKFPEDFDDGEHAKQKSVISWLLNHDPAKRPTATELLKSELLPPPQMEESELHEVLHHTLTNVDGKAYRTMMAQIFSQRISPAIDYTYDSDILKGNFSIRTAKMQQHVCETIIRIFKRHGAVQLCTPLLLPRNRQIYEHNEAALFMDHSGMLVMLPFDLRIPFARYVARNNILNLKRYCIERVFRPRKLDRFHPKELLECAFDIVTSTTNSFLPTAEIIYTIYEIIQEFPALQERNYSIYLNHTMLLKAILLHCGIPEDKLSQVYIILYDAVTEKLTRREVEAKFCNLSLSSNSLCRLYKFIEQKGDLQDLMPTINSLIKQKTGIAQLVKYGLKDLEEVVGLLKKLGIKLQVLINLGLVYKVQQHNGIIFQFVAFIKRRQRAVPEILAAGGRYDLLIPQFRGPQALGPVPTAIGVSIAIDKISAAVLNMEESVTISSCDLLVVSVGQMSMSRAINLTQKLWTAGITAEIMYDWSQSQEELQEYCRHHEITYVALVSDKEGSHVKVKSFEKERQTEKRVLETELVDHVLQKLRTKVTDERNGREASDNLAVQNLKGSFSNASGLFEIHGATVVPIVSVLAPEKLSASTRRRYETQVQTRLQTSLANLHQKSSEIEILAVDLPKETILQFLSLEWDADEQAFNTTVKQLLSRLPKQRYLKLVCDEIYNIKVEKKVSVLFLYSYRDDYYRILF

Row | SMILES | inhibition at 3 µM ([1]; Table 3-2) [%] | inhibition at 0.1 µM ([2]; Table 4-2) [%] | inhibition at 3 µM ([1]; Table 3-1) [%] | inhibition at 0.1 µM ([2]; Table 4-1) [%] | other results
1 | Nc1ncc(C#Cc2c(F)ccc(NS(=O)(=O)c3cc(Cl)cn4c(Cl)cnc34)c2F)cn1 [Example 165, N-(3-((2-aminopyrimidin-5-yl)ethynyl)-2,4-difluorophenyl)-3,6-dichloroimidazo[1,2-a]pyridine-8-sulfonamide] | 96 | 27 | – | – | –
2 | O=S(=O)(Nc1ccc(F)c(C#Cc2cnc(NC3COC3)nn2)c1F)c1cc(Cl)cc(CO)c1Cl [Example 179, 2,5-dichloro-N-(2,4-difluoro-3-((3-(oxetan-3-ylamino)-1,2,4-triazin-6-yl)ethynyl)phenyl)-3-(hydroxymethyl)benzenesulfonamide] | 102 | 75 | – | – | –
3 | O=S(=O)(Nc1ccc(F)c(C#Cc2cnc(N[C@H]3CC[C@H](O)CC3)nc2)c1F)c1cc(Cl)cc2c1OCC2O (stereo partly drawn) [Example 190, 5-chloro-N-(2,4-difluoro-3-((2-((trans-4-hydroxycyclohexyl)amino)pyrimidin-5-yl)ethynyl)phenyl)-3-hydroxy-2,3-dihydro-1-benzofuran-7-sulfonamide] | – | – | – | – | inhibitory rate ([1]; Table 3-2): 99%; inhibitory rate ([2]; Table 4-2): 65%
4 | Cc1ccc(Cl)cc1S(=O)(=O)Nc1ccc(F)c(C#Cc2cnc3[nH]ncc3c2)c1F [Example 15, 5-chloro-N-(2,4-difluoro-3-(1H-pyrazolo[3,4-b]pyridin-5-ylethynyl)phenyl)-2-methylbenzenesulfonamide] | – | – | 100 | 75 | –
5 | COc1c(CO)cc(Cl)cc1S(=O)(=O)Nc1ccc(F)c(C#Cc2cnc(N)nn2)c1F [Example 130, N-(3-((3-amino-1,2,4-triazin-6-yl)ethynyl)-2,4-difluorophenyl)-5-chloro-3-(hydroxymethyl)-2-methoxybenzenesulfonamide] | 99 | 68 | – | – | –
6 | CNc1ncc(C#Cc2c(F)ccc(NS(=O)(=O)c3cc(Cl)ccc3Cl)c2F)cn1 [Example 37, 2,5-dichloro-N-(2,4-difluoro-3-((2-(methylamino)pyrimidin-5-yl)ethynyl)phenyl)benzenesulfonamide TFA Salt] | – | – | 98 | 45 | –
7 | COc1c(CO)cc(Cl)cc1S(=O)(=O)Nc1ccc(F)c(C#Cc2cnc(N[C@H](C)CO)nc2)c1F [Example 150, 5-chloro-N-(2,4-difluoro-3-((2-(((2R)-1-hydroxypropan-2-yl)amino)pyrimidin-5-yl)ethynyl)phenyl)-3-(hydroxymethyl)-2-methoxybenzenesulfonamide] | 99 | 77 | – | – | –
8 | Cn1ncc2c(S(=O)(=O)Nc3ccc(F)c(C#Cc4cnc(N)nc4)c3F)cc(Cl)cc21 [Example 192, N-(3-((2-aminopyrimidin-5-yl)ethynyl)-2,4-difluorophenyl)-6-chloro-1-methyl-1H-indazole-4-sulfonamide] | – | 43 | – | – | –
9 | Nc1ncc(C#Cc2c(F)ccc(NS(=O)(=O)c3cc(Cl)cnc3OC(F)F)c2F)cn1 [Example 162, N-(3-((2-aminopyrimidin-5-yl)ethynyl)-2,4-difluorophenyl)-5-chloro-2-(difluoromethoxy)pyridine-3-sulfonamide] | 99 | 35 | – | – | –
10 | O=S(=O)(Nc1ccc(F)c(C#Cc2cnc3[nH]ncc3c2)c1F)c1cc(Br)ccc1F [Example 24, 5-bromo-N-(2,4-difluoro-3-(1H-pyrazolo[3,4-b]pyridin-5-ylethynyl)phenyl)-2-fluorobenzenesulfonamide TFA Salt] | – | – | 99 | 37 | –
11 | C[C@H](CO)Nc1ncc(C#Cc2c(F)ccc(NS(=O)(=O)c3cc(Cl)cc4c3OCC4O)c2F)cn1 (stereo partly drawn) [Example 184, 5-chloro-N-(2,4-difluoro-3-((2-(((2R)-1-hydroxypropan-2-yl)amino)pyrimidin-5-yl)ethynyl)phenyl)-3-hydroxy-2,3-dihydro-1-benzofuran-7-sulfonamide] | 99 | – | – | – | inhibitory rate ([2]; Table 4-2): 59%
12 | Cc1ncc(Cl)cc1S(=O)(=O)Nc1ccc(F)c(C#Cc2cnc(N[C@@H](C)CO)nc2)c1F [Example 193, 5-chloro-N-(2,4-difluoro-3-((2-(((2S)-1-hydroxypropan-2-yl)amino)pyrimidin-5-yl)ethynyl)phenyl)-2-methylpyridine-3-sulfonamide] | 98 | 64 | – | – | –
13 | COc1ncc(Cl)cc1S(=O)(=O)Nc1ccc(F)c(C#Cc2cnc(N[C@H](C)CO)nc2)c1F [Example 175, 5-chloro-N-(2,4-difluoro-3-((2-(((2R)-1-hydroxypropan-2-yl)amino)pyrimidin-5-yl)ethynyl)phenyl)-2-methoxypyridine-3-sulfonamide] | 99 | 75 | – | – | –
14 | O=S(=O)(Nc1ccc(F)c(C#Cc2cnc3[nH]ncc3c2)c1F)c1cc(Cl)cc2c1OCC2 [Example 8, 5-chloro-N-(2,4-difluoro-3-(1H-pyrazolo[3,4-b]pyridin-5-ylethynyl)phenyl)-2,3-dihydro-1-benzofuran-7-sulfonamide] | – | – | 100 | 78 | –
15 | O=S(=O)(Nc1ccc(F)c(C#Cc2cnc3[nH]ncc3c2)c1F)c1cc(Cl)ccc1F [Example 26, 5-chloro-N-(2,4-difluoro-3-(1H-pyrazolo[3,4-b]pyridin-5-ylethynyl)phenyl)-2-fluorobenzenesulfonamide TFA Salt] | – | – | 99 | 41 | –
16 | COc1ncc(Cl)cc1S(=O)(=O)Nc1ccc(F)c(C#Cc2cnc(N[C@H]3CC[C@H](O)CC3)nc2)c1F [Example 174, 5-chloro-N-(2,4-difluoro-3-((2-((trans-4-hydroxycyclohexyl)amino)pyrimidin-5-yl)ethynyl)phenyl)-2-methoxypyridine-3-sulfonamide] | 99 | 83 | – | – | –
17 | O=S(=O)(Nc1ccc(F)c(C#Cc2cnc3[nH]ncc3c2)c1F)c1cc(Cl)cc(CO)c1Cl [Example 1, 2,5-dichloro-N-(2,4-difluoro-3-(1H-pyrazolo[3,4-b]pyridin-5-ylethynyl)phenyl)-3-(hydroxymethyl)benzenesulfonamide] | – | – | 100 | 66 | –
18 | O=S(=O)(Nc1ccc(F)c(C#Cc2cnc3[nH]ncc3c2)c1F)c1cc(Cl)cc(Cl)c1 [Example 25, 3,5-dichloro-N-(2,4-difluoro-3-(1H-pyrazolo[3,4-b]pyridin-5-ylethynyl)phenyl)benzenesulfonamide] | – | – | 99 | 44 | –
19 | C[C@H](CO)Nc1ncc(C#Cc2c(F)ccc(NS(=O)(=O)c3cc(Cl)cc4c3OCC4O)c2F)cn1 (stereo partly drawn) [Example 186, 5-chloro-N-(2,4-difluoro-3-((2-(((2R)-1-hydroxypropan-2-yl)amino)pyrimidin-5-yl)ethynyl)phenyl)-3-hydroxy-2,3-dihydro-1-benzofuran-7-sulfonamide] | – | – | – | – | inhibitory rate ([1]; Table 3-2): 100%; inhibitory rate ([2]; Table 4-2): 43%
20 | Cc1cc(Br)cc(S(=O)(=O)Nc2ccc(F)c(C#Cc3cnc4[nH]ncc4c3)c2F)c1 [Example 18, 3-bromo-N-(2,4-difluoro-3-(1H-pyrazolo[3,4-b]pyridin-5-ylethynyl)phenyl)-5-methylbenzenesulfonamide] | – | – | 100 | 63 | –
21 | C[C@H](CO)Nc1ncc(C#Cc2c(F)ccc(NS(=O)(=O)c3cc(Cl)cc4c3OCC4O)c2F)cn1 (stereo partly drawn) [Example 187, 5-chloro-N-(2,4-difluoro-3-((2-(((2R)-1-hydroxypropan-2-yl)amino)pyrimidin-5-yl)ethynyl)phenyl)-3-hydroxy-2,3-dihydro-1-benzofuran-7-sulfonamide] | – | – | – | – | inhibitory rate ([2]; Table 4-2): 64%
22 | COc1c(CO)cc(Cl)cc1S(=O)(=O)Nc1ccc(F)c(C#Cc2cnc(NCC3(O)CC3)nc2)c1F [Example 154, 5-chloro-N-(2,4-difluoro-3-((2-(((1-hydroxycyclopropyl)methyl)amino)pyrimidin-5-yl)ethynyl)phenyl)-3-(hydroxymethyl)-2-methoxybenzenesulfonamide] | – | 70 | – | – | –
23 | Nc1ncc(C#Cc2c(F)ccc(NS(=O)(=O)c3cc(Cl)ccc3Cl)c2F)cn1 [Example 13, N-(3-((2-aminopyrimidin-5-yl)ethynyl)-2,4-difluorophenyl)-2,5-dichlorobenzenesulfonamide TFA Salt] | – | – | – | 70 | –
